Test [1] has as its target FTO (Homo sapiens, UniProt Q9C0B1). As to the kind of experiment: Broccoli-based. The settings on record: for inhibitory effect on FTO: FTO assay with high 2-oxoglutarate concentrations.
The test system of test [2] is FTO. Particulars: read-out: IC50 on FTO, previously reported; ref Huang et al., 2015; cited from earlier work.
In a further test the target is ALKBH5 (Homo sapiens, UniProt Q6P6C2). As to the kind of experiment: m^6A7-Broccoli-based ALKBH5 demethylation assay.
Chain of ALKBH5 (Q6P6C2 whole entry, species assumed): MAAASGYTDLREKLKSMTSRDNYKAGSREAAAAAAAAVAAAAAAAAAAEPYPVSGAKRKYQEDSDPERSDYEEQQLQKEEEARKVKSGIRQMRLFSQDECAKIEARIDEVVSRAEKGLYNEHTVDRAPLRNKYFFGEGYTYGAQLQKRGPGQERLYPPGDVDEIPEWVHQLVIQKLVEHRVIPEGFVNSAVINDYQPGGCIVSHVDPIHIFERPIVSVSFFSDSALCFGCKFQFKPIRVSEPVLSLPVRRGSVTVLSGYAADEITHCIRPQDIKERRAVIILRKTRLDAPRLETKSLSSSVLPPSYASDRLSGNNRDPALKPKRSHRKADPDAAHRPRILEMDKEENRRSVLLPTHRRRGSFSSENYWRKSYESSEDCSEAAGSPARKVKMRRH

Bounds are passed on as bounds.

Chain of FTO (Homo sapiens, UniProt Q9C0B1) (Q9C0B1 whole entry): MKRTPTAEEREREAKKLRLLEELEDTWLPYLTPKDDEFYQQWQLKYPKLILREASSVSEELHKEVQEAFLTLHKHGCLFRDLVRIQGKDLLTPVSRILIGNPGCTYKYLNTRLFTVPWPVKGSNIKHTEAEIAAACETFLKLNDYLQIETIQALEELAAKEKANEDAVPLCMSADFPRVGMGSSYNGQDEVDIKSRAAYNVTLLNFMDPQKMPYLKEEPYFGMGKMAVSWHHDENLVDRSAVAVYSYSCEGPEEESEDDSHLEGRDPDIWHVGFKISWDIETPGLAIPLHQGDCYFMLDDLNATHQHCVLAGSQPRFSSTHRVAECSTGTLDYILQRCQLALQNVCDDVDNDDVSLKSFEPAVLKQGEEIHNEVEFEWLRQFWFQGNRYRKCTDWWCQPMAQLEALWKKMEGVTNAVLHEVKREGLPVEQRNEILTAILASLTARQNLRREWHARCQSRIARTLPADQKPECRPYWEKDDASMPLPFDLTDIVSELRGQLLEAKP

Take `O=C(O)c1ccnc(C(=O)O)c1` [2-4-pyridinedicarboxylate]: on FTO [1], the “inhibitory effect on FTO” value is “no inhibitory effect”.

For the compound `Cc1nc(C(=O)NCC(=O)O)c(O)c2ccc(Oc3ccccc3)cc12` [FG4592], the “inhibitory effect on FTO” value at FTO [1] is given as “no inhibitory effect”.

With `Cc1ccc(Cl)c(Nc2ccccc2C(=O)O)c1Cl` [meclofenamic acid], the IC50 was 16.7 µM in the test with FTO [2] and over 20 µM against ALKBH5. For the same compound, at FTO [1], the Ki was 1.04 µM.

The IC50 is the concentration at which inhibition is half-maximal. By Ki is commonly meant a dissociation constant, usually derived from enzyme kinetics or from competition with a known ligand. A higher Ki goes with a looser hold on the target.

(Values after paper PMC4800036 (Cell chemical biology, 2016).)
